Data taken from US11427586B2, “1,2,4-oxadiazole derivatives as liver X receptor agonists” (NOVARTIS AG, priority 2019, dated 2022).
pEC50: −log10 of the molar value. Like-named read-outs stand apart in the source and are kept apart here.

Legend:
SCD1 = assay: Measurement of SCD1 expression in SZ95-SCD1-HiBit cells (HiBiT assay); format: cell-based; conditions: Homo sapiens, 48 h; for pEC50: SCD1 protein production, luminescence, initial dilution 1:3 in DMSO, read-out: HiBit EC50
SZ95 sebocytes = assay: Sentinel Lipid Assay (SLA), desaturation index in SZ95 sebocytes; format: cell-based; conditions: Homo sapiens, 72 h; for pEC50: desaturation index, lowest dose used 4.6 nM, read-out: SLA EC50
In short: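 SZ95 human sebocytes on fibronectin-coated plates, dosed 72 h at 37 °C with 1:3 dilutions from 10 μM; lipids extracted with deuterated triglyceride internal standards and quantified by LC-MS/MS (MRM) as 11 sentinel lipids. Desaturation index from elastic-net coefficients, normalized to DMSO; Amax relative to a reference LXR agonist.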

[1] = normalized Amax based on the reference compound Amax of 100%, read-out: HiBit Normalized Amax
[2] = SZ95-SCD1-HiBit cells, compared to reference compound, read-out: HiBit Amax
[3] = normalized Amax based on the reference compound Amax of 100%, read-out: SLA Normalized Amax
[4] = SZ95 cells, compared to reference compound, read-out: SLA Amax

Row | Compound | pEC50 (SCD1; SZ95-SCD1-HiBit cells) | pEC50 (SZ95 sebocytes; SZ95 cells) | Emax (SCD1; [1]) [%] | Emax (SCD1; [2]) [%] | Emax (SZ95 sebocytes; [3]) [%] | Emax (SZ95 sebocytes; [4]) [%]
1 | CC(C)CS(=O)(=O)c1ccccc1Oc1ccc(-c2noc(CN3C(=O)N(CCN4CCOCC4)C4(CCN(C(=O)C5CCN(C)CC5)CC4)C3=O)n2)cc1C(F)(F)F [Compound 33, 3-((3-(4-(2-(isobutylsulfonyl)phenoxy)-3-(trifluoromethyl)phenyl)-1,2,4-oxadiazol-5-yl)methyl)-8-(1-methylpiperidine-4-carbonyl)-1-(2-morpholinoethyl)-1,3,8-triazaspiro[4.5]decane-2,4-dione] | 8.07 | ≥ 8.34 | 113 | 107 | 121 | 116
2 | CC1(C)C(=O)N(Cc2nc(-c3ccc(Oc4ccccc4S(=O)(=O)CC4CCOC4)c(C(F)(F)F)c3)no2)C(=O)N1CCN1CCOCC1 (stereo not drawn) [Compound 38, 5,5-dimethyl-1-(2-morpholinoethyl)-3-((3-(4-(2-(((tetrahydrofuran-3-yl)methyl)sulfonyl)phenoxy)-3-(trifluoromethyl)phenyl)-1,2,4-oxadiazol-5-yl)methyl)imidazolidine-2,4-dione] | 8.28 | ≥ 8.34 | 75.8 | 72.1 | 160 | 154
3 | CC1(C)C(=O)N(Cc2nc(-c3ccc(Oc4ccccc4S(=O)(=O)CC4CCCOC4)c(C(F)(F)F)c3)no2)C(=O)N1CCN1CCOCC1 (stereo not drawn) [Compound 40, 5,5-dimethyl-1-(2-morpholinoethyl)-3-((3-(4-(2-(((tetrahydro-2H-pyran-3-yl)methyl)sulfonyl)phenoxy)-3-(trifluoromethyl)phenyl)-1,2,4-oxadiazol-5-yl)methyl)imidazolidine-2,4-dione] | 8.15 | ≥ 8.34 | 74.7 | 71 | 168 | 161
4 | CC(C)CS(=O)(=O)c1ccccc1Oc1ccc(-c2noc(CN3C(=O)CN(CCN4CCOCC4)C3=O)n2)cc1C(F)(F)F [Compound 44, 3-((3-(4-(2-(isobutylsulfonyl)phenoxy)-3-(trifluoromethyl)phenyl)-1,2,4-oxadiazol-5-yl)methyl)-1-(2-morpholinoethyl)imidazolidine-2,4-dione] | 8.18 | ≥ 8.34 | 77 | 73.2 | 86.4 | 82.9
5 | CC(C)CS(=O)(=O)c1ccccc1Oc1ccc(-c2noc(CN3C(=O)N(CCN4CCOCC4)C4(CCC4)C3=O)n2)cc1C(F)(F)F [Compound 45, 7-((3-(4-(2-(isobutylsulfonyl)phenoxy)-3-(trifluoromethyl)phenyl)-1,2,4-oxadiazol-5-yl)methyl)-5-(2-morpholinoethyl)-5,7-diazaspiro[3.4]octane-6,8-dione] | 8.60 | ≥ 8.34 | 94.2 | 89.6 | 162 | 155

The next compounds have a higher pEC50 (SCD1; SZ95-SCD1-HiBit cells) than those just listed; values first:

Row | pEC50 (SCD1; SZ95-SCD1-HiBit cells) | pEC50 (SZ95 sebocytes; SZ95 cells) | Compound | Emax (SCD1; [1]) [%] | Emax (SCD1; [2]) [%] | Emax (SZ95 sebocytes; [3]) [%] | Emax (SZ95 sebocytes; [4]) [%]
6 | 8.82 | ≥ 8.34 | CC1(C)C(=O)N(Cc2nc(-c3ccc(OCC(C)(C(F)(F)F)C(F)(F)F)c(C(F)(F)F)c3)no2)C(=O)N1CCN1CCOCC1 [Compound 42, 5,5-dimethyl-1-(2-morpholinoethyl)-3-((3-(4-(3,3,3-trifluoro-2-methyl-2-(trifluoromethyl)propoxy)-3-(trifluoromethyl)phenyl)-1,2,4-oxadiazol-5-yl)methyl)imidazolidine-2,4-dione] | 86.1 | 81.9 | 157 | 150
7 | 8.85 | ≥ 8.34 | CC1(C)C(=O)N(Cc2nc(-c3ccc(Oc4ccccc4S(=O)(=O)C4CC(O)C4)c(C(F)(F)F)c3)no2)C(=O)N1CCN1CCOCC1 (stereo not drawn) [Compound 39, 3-((3-(4-(2-((3-hydroxycyclobutyl)sulfonyl)phenoxy)-3-(trifluoromethyl)phenyl)-1,2,4-oxadiazol-5-yl)methyl)-5,5-dimethyl-1-(2-morpholinoethyl)imidazolidine-2,4-dione] | 93.9 | 89.3 | 170 | 164
8 | 8.94 | ≥ 8.34 | CC(CS(=O)(=O)c1ccccc1Oc1ccc(-c2noc(CN3C(=O)N(CCN4CCOCC4)C(C)(C)C3=O)n2)cc1C(F)(F)F)N1CCCC1 (stereo not drawn) [Compound 43, 5,5-dimethyl-1-(2-morpholinoethyl)-3-((3-(4-(2-((2-(pyrrolidin-1-yl)propyl)sulfonyl)phenoxy)-3-(trifluoromethyl)phenyl)-1,2,4-oxadiazol-5-yl)methyl)imidazolidine-2,4-dione] | 84.1 | 80 | 147 | 141
9 | 9.21 | 7.76 | CCCC(=O)N1CCC2(CC1)C(=O)N(Cc1nc(-c3ccc(Oc4ccccc4S(=O)(=O)CC(C)C)c(C(F)(F)F)c3)no1)C(=O)N2CCN1CCOCC1 [Compound 35, 8-butyryl-3-((3-(4-(2-(isobutylsulfonyl)phenoxy)-3-(trifluoromethyl)phenyl)-1,2,4-oxadiazol-5-yl)methyl)-1-(2-morpholinoethyl)-1,3,8-triazaspiro[4.5]decane-2,4-dione] | 73.1 | 69.5 | 122 | 117
10 | 9.42 | ≥ 8.34 | CC(C)CS(=O)(=O)c1ccccc1Oc1ccc(-c2noc(CN3C(=O)N(CCN4CCOCC4)C4(CCN(C(=O)c5ccncn5)CC4)C3=O)n2)cc1C(F)(F)F [Compound 34, 3-((3-(4-(2-(isobutylsulfonyl)phenoxy)-3-(trifluoromethyl)phenyl)-1,2,4-oxadiazol-5-yl)methyl)-1-(2-morpholinoethyl)-8-(pyrimidine-4-carbonyl)-1,3,8-triazaspiro[4.5]decane-2,4-dione] | 85.7 | 81.5 | 171 | 164
11 | 9.78 | ≥ 8.34 | CC1(C)C(=O)N(Cc2nc(-c3ccc(Oc4ccccc4C(F)(F)F)c(C(F)(F)F)c3)no2)C(=O)N1CCN1CCOCC1 [Compound 41, 5,5-dimethyl-1-(2-morpholinoethyl)-3-((3-(3-(trifluoromethyl)-4-(2-(trifluoromethyl)phenoxy)phenyl)-1,2,4-oxadiazol-5-yl)methyl)imidazolidine-2,4-dione] | 93 | 88.4 | 92.2 | 88.5
12 | 9.92 | ≥ 8.34 | CC(C)CS(=O)(=O)c1ccccc1Oc1ccc(-c2noc(CN3C(=O)N(CCC4CCOCC4)C4(CCN(C(=O)c5cnccn5)CC4)C3=O)n2)cc1C(F)(F)F [Compound 36, 3-((3-(4-(2-(isobutylsulfonyl)phenoxy)-3-(trifluoromethyl)phenyl)-1,2,4-oxadiazol-5-yl)methyl)-8-(pyrazine-2-carbonyl)-1-(2-(tetrahydro-2H-pyran-4-yl)ethyl)-1,3,8-triazaspiro[4.5]decane-2,4-dione] | 81.5 | 77.5 | 131 | 126
13 | 10.18 | ≥ 8.34 | CC(C)CS(=O)(=O)c1ccccc1Oc1ccc(-c2noc(CN3C(=O)N(CCC4CCOCC4)C4(CCN(C(=O)c5cncnc5)CC4)C3=O)n2)cc1C(F)(F)F [Compound 37, 3-((3-(4-(2-(isobutylsulfonyl)phenoxy)-3-(trifluoromethyl)phenyl)-1,2,4-oxadiazol-5-yl)methyl)-8-(pyrimidine-5-carbonyl)-1-(2-(tetrahydro-2H-pyran-4-yl)ethyl)-1,3,8-triazaspiro[4.5]decane-2,4-dione] | 91.8 | 87.3 | 145 | 140
